Where “and” joins values, the source holds several entries; their conditions need not be identical. Equal values may be shown once.
What was measured:
CAMKK1 = CAMKK1 (Homo sapiens, UniProt Q8N5S9); conditions: 1 μM; Run 1, Run 2
CLK2 = CLK2 (Homo sapiens, UniProt P49760); conditions: 1 μM; Run 1, Run 2
MRCKb/CDC42BPB = MRCKb/CDC42BPB (Homo sapiens, UniProt Q9Y5S2); conditions: 1 μM; Run 1, Run 2
NEK1 = target: T1, NEK1 (Homo sapiens, UniProt Q96PY6); conditions: 1 μM; Run 1, Run 2
T1 sequence (Q96PY6 1-1258): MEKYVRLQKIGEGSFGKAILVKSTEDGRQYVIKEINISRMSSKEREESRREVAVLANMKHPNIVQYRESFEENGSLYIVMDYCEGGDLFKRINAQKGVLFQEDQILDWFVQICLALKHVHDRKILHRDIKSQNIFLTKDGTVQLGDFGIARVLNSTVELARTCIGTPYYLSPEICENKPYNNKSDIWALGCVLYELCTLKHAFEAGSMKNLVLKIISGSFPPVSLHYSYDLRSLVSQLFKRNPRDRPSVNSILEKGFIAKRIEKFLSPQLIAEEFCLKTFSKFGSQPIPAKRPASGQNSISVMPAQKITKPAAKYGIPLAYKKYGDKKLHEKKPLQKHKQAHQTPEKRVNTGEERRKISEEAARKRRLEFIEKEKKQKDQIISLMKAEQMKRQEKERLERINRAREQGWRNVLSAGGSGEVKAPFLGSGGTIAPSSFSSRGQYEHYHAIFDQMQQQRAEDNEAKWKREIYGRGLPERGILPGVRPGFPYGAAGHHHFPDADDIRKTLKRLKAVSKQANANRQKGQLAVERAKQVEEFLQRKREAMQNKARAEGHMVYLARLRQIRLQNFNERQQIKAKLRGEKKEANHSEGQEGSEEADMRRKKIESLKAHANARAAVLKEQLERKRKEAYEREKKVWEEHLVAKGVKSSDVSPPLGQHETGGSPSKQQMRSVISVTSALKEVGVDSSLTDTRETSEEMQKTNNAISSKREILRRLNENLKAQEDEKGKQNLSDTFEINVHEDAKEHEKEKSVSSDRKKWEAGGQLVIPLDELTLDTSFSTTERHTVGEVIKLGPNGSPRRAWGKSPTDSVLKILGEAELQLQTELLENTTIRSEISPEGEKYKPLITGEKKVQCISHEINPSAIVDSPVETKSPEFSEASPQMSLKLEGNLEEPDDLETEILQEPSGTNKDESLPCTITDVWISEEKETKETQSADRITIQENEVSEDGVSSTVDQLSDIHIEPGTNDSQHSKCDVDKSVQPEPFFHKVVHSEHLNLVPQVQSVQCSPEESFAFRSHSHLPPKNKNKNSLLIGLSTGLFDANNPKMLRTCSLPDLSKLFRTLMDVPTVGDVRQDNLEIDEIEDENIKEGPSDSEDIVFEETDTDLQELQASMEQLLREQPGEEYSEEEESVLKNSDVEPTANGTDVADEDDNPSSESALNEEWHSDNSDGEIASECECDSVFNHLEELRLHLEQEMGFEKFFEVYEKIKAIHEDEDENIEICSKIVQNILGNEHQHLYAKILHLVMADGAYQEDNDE

P38d/MAPK13 = target: T2, P38d/MAPK13 (Homo sapiens, UniProt O15264); conditions: 1 μM; Run 1, Run 2
T2 sequence (O15264 1-365): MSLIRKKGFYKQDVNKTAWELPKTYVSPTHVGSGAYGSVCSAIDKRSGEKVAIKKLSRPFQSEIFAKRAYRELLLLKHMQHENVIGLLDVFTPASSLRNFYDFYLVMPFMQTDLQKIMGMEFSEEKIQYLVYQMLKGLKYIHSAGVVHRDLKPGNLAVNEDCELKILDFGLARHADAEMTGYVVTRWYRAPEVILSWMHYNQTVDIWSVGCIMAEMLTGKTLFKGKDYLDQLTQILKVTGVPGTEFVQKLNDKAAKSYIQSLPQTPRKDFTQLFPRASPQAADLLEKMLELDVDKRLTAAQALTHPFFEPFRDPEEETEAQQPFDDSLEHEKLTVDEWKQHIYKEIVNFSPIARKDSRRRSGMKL

ZIPK/DAPK3 = ZIPK/DAPK3 (Homo sapiens, UniProt O43293); conditions: 1 μM; Run 1, Run 2
CDK14/cyclin Y (PFTK1) = CDK14/cyclin Y (PFTK1) (Homo sapiens, UniProt O94921); experiment: biochemical; conditions: read-out: % enzyme activity, 1 μM; Run 1, Run 2
CDK6/cyclin D1 = CDK6/cyclin D1 (Homo sapiens, UniProt Q00534); experiment: biochemical; conditions: read-out: % enzyme activity, 1 μM; Run 1, Run 2
DMPK = target: T3, DMPK (Homo sapiens, UniProt Q09013); experiment: biochemical; conditions: read-out: % enzyme activity, 1 μM; Run 1, Run 2
T3 sequence (Q09013 1-629): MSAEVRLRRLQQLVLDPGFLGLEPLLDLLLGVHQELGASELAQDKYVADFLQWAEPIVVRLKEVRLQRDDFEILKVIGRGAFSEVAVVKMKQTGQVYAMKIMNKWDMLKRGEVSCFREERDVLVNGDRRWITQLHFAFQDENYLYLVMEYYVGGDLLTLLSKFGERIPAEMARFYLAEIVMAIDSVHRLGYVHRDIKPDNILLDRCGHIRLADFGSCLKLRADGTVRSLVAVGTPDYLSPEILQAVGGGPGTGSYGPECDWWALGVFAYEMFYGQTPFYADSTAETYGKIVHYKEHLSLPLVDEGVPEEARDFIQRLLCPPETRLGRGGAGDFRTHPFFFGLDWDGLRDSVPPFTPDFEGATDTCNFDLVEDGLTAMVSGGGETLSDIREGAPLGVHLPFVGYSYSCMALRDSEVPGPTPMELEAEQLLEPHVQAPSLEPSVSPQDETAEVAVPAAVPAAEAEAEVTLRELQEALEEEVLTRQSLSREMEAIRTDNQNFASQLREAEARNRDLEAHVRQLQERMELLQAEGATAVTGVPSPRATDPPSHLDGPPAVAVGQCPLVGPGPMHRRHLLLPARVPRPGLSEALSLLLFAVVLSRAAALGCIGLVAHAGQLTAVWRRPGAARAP

MAPKAPK3 = MAPKAPK3 (Homo sapiens, UniProt Q16644); experiment: biochemical; conditions: read-out: % enzyme activity, 1 μM; Run 1, Run 2
PASK = PASK (Homo sapiens, UniProt Q96RG2); experiment: biochemical; conditions: read-out: % enzyme activity, 1 μM; Run 1, Run 2
PLK2 = PLK2 (Homo sapiens, UniProt Q9NYY3); experiment: biochemical; conditions: read-out: % enzyme activity, 1 μM; Run 1, Run 2
SIK3 = SIK3 (Homo sapiens, UniProt Q9Y2K2); experiment: biochemical; conditions: read-out: % enzyme activity, 1 μM; Run 1, Run 2
Sequence of SIK3 (Q9Y2K2 whole entry): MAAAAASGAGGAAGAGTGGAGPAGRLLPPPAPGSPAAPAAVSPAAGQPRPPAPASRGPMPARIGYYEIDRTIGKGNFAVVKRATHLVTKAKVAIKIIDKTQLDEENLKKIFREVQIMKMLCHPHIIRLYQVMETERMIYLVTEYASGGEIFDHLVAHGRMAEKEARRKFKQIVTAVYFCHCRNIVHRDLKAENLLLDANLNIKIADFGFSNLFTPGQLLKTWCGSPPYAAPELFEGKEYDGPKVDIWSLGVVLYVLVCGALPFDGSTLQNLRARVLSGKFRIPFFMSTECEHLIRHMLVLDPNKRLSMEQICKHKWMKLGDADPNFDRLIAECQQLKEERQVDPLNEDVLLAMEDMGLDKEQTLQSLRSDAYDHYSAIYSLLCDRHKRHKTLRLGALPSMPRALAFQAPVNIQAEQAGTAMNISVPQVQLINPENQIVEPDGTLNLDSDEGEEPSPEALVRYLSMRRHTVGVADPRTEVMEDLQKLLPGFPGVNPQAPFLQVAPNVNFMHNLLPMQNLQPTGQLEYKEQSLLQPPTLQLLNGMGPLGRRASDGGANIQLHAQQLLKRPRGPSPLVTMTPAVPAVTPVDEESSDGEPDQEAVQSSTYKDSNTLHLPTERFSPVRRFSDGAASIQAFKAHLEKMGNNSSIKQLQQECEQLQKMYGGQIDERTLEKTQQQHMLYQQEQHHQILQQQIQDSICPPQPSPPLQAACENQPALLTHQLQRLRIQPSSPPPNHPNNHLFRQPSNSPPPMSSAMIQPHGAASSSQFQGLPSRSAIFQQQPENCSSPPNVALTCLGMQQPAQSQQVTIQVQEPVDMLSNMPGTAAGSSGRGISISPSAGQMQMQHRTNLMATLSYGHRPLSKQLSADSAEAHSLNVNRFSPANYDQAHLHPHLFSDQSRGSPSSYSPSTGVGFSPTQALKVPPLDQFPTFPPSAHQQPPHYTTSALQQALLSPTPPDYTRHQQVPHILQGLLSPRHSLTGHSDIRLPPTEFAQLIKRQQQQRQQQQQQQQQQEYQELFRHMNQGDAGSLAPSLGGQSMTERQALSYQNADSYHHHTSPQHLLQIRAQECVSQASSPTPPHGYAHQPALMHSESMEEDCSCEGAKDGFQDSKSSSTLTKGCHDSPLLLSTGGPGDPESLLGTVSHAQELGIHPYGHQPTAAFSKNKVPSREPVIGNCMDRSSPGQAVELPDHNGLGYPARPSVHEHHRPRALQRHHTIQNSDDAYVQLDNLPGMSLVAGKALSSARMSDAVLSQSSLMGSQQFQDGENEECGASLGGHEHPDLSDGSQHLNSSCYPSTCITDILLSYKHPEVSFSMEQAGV

Sequence of MRCKb/CDC42BPB (Q9Y5S2 whole entry): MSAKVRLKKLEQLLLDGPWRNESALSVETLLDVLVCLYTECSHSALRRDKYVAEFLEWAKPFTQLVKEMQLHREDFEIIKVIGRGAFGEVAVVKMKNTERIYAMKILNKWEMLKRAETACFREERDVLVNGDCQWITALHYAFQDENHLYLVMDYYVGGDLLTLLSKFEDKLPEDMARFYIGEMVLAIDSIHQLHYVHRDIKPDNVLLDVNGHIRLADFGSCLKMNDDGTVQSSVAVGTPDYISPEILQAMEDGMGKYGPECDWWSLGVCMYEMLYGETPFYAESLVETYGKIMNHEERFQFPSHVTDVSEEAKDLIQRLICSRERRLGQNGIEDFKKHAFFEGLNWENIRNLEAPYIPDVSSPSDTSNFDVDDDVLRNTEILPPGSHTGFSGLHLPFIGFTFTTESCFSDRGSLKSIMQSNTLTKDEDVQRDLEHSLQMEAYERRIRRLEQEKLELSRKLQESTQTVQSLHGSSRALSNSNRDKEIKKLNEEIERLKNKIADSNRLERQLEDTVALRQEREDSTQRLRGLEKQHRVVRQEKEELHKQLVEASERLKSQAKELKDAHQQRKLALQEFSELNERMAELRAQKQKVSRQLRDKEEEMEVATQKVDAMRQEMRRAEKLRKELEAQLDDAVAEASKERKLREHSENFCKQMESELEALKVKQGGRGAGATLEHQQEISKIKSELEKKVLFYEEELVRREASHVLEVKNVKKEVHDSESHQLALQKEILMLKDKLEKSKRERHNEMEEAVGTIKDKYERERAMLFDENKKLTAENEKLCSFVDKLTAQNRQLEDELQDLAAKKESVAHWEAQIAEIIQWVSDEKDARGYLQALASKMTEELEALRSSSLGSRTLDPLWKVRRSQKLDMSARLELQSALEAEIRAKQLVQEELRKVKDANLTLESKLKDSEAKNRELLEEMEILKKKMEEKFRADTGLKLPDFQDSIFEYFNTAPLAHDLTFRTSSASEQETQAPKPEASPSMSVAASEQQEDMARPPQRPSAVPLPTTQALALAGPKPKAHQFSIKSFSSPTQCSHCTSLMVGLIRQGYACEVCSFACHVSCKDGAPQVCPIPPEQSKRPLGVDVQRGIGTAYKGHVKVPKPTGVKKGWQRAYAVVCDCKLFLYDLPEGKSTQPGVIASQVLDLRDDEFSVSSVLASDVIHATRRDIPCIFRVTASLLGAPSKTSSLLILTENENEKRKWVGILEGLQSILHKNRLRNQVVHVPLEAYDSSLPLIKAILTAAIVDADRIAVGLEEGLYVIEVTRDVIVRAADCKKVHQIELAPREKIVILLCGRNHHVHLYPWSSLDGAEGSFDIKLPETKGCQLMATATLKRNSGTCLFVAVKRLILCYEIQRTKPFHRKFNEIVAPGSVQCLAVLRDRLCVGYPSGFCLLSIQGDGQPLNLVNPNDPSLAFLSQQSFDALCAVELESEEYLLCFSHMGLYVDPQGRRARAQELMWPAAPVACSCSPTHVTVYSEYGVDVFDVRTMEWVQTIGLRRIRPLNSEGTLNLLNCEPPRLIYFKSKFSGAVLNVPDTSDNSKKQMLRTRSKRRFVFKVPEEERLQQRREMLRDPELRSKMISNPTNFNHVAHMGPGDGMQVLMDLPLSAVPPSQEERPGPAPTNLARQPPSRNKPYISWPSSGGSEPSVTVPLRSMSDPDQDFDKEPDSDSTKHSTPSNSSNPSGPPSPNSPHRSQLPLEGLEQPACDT
Sequence of CLK2 (P49760 whole entry): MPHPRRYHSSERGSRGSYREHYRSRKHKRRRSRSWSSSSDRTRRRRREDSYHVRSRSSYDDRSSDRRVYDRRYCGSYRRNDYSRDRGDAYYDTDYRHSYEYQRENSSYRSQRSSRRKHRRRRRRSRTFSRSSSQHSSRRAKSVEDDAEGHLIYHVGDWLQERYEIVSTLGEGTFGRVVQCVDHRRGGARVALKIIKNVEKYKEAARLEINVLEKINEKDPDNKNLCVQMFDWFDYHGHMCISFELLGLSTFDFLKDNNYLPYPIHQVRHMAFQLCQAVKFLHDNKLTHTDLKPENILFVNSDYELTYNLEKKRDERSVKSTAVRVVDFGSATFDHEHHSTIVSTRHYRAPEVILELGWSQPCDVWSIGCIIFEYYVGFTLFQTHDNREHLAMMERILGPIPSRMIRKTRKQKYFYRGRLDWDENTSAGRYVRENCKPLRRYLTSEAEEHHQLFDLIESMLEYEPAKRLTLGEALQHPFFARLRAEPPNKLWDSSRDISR
Sequence of CAMKK1 (Q8N5S9 whole entry): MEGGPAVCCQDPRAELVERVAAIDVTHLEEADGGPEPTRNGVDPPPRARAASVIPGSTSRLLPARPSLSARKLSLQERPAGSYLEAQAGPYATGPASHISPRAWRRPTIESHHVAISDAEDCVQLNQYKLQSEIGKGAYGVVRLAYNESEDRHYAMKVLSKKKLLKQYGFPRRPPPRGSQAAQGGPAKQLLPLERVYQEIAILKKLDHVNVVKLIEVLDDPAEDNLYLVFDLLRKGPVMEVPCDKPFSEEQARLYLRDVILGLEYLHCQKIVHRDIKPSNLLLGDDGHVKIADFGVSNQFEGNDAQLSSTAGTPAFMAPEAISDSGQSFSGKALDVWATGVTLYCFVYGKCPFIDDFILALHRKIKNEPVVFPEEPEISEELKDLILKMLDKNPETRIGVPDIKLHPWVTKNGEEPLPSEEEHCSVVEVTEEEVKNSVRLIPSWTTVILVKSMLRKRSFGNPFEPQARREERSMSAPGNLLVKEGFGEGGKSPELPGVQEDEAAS
Sequence of CDK14/cyclin Y (PFTK1) (O94921 whole entry): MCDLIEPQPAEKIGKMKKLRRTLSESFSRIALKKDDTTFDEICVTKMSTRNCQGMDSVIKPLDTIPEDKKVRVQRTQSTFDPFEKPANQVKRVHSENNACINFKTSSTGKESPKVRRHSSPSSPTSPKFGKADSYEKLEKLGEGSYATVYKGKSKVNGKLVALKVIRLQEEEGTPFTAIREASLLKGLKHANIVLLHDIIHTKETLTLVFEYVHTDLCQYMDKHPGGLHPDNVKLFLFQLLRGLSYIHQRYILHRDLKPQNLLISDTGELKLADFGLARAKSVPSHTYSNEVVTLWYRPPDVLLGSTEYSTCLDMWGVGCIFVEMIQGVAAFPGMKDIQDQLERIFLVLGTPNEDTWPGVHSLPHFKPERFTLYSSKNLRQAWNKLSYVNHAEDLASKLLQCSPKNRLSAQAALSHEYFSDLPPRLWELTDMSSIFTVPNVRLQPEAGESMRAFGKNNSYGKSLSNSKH
Sequence of CDK14/cyclin Y (PFTK1) (Q8ND76 whole entry partner): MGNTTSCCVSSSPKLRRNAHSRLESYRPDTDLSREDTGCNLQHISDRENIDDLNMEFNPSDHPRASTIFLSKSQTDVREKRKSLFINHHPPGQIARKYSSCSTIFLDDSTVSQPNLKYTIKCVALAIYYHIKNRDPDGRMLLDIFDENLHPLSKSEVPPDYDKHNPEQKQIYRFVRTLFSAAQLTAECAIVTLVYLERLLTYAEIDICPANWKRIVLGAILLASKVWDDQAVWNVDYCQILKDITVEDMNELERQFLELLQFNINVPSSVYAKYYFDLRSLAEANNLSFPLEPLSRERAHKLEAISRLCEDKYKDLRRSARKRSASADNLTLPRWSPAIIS

Row | SMILES | % enzyme activity at 1 μM (SIK2) | % enzyme activity (CAMKK1) [%] | % enzyme activity (CLK2) [%] | % enzyme activity (MRCKb/CDC42BPB) [%] | % enzyme activity (NEK1) [%] | % enzyme activity (P38d/MAPK13) [%] | % enzyme activity (ZIPK/DAPK3) [%] | remaining activity at 1 µM (CDK14/cyclin Y (PFTK1)) [%] | remaining activity at 1 µM (CDK6/cyclin D1) [%] | remaining activity at 1 µM (DMPK) [%] | remaining activity at 1 µM (MAPKAPK3) [%] | remaining activity at 1 µM (PASK) [%] | remaining activity at 1 µM (PLK2) [%] | remaining activity at 1 µM (SIK3) [%]
1 | COc1cc(-c2cncc(-c3ccc(N4C[C@@H](C)N(C)[C@@H](C)C4)cc3)c2C)cc(F)c1C(N)=O [Compound 26c, 2-Fluoro-6-methoxy-4-(4-methyl-5-(4-((3R,5S)-3,4,5-trimethylpiperazin-1-yl)phenyl)pyridin-3-yl)benzamide] | 43.9% and 43.5% | 93.52 | 85.73 | 99.47 | 84.46 | 97.52 | 102.34 | 99.8 | 95.9 | 105 | 97.2 | 99.2 | 103 | 89
2 | COc1cc(-c2cncc(-c3ccc(N4CCN(C)CC4)cc3)c2C)cc(F)c1C(N)=O [Compound 26a, 2-Fluoro-6-methoxy-4-(4-methyl-5-(4-(4-methylpiperazin-1-yl)phenyl)pyridin-3-yl)benzamide] | 32% and 30.7% | 92.05 | 91.71 | 94.42 | 84.54 | 98.26 | 103.31 | 98.4 | 100 | 109 | 99.5 | 94 | 98.8 | 59.5

Reference: article PMC8213057, “Targeting ALK2: An Open Science Approach to Developing Therapeutics for the Treatment of Diffuse Intrinsic Pontine Glioma” (Journal of Medicinal Chemistry, 2020)
